Test results taken from patent US20250179061A1 (SIRONAX LTD., priority 2022, published 2025).
pIC50: −log10 of the molar value. Where two headings read alike, the source gives them in different places.

System: HT-29 cells
Experiment: HT-29 necroptosis cell viability assay (TNF-α/SMAC mimetic/zVAD-FMK, CellTiter-Glo)
Assay type: cell-based
Details: Homo sapiens
Outline: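 Necroptosis was triggered by TNF-α (10 ng/ml), SMAC mimetic (6 μM) and zVAD-FMK (10 μM) in serum-free medium during 20 h compound exposure (10 concentrations, threefold steps) of HT-29 cells. IC50 from duplicate dose-responses uses CellTiter-Glo ATP luminescence as viability read-out.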

[1] = HT-29, HT-29 cells, necroptosis induced by TNF-α/SMAC mimetic/zVAD-FMK, CellTiter-Glo, read-out: Activity (IC50 class)
[2] = HT-29, HT-29 necroptosis cell viability assay, class symbols for IC50, read-out: Activity
[3] = HT-29 cells stimulated with TNF-α (10 ng/ml), SMAC mimetic (6 μM) and zVAD-FMK (10 μM), 20 hours, CellTiter-Glo ATP luminescence, geometric mean IC50 from 10 points, read-out: Activity
[4] = HT-29, HT-29 necroptosis cell viability, IC50 class symbols, read-out: Activity

O=c1n(Cc2c(F)cccc2F)cnn1-c1ccc(Oc2cc(N3CC4(C3)CN(C3CC3)C4)ncc2F)c(F)c1 [Example 680, 2-(4-((2-(6-cyclopropyl-2,6-diazaspiro[3.3]heptan-2-yl)-5-fluoropyridin-4-yl)oxy)-3-fluorophenyl)-4-(2,6-difluorobenzyl)-2,4-dihydro-3H-1,2,4-triazol-3-one]
pIC50 [1]: > 7.00

Cc1cn(C)c(=O)n1Cc1ccc(-n2ncn(Cc3c(F)cccc3F)c2=O)cc1 [Example 214, 4-(2,6-difluorobenzyl)-2-(4-((3,5-dimethyl-2-oxo-2,3-dihydro-1H-imidazol-1-yl)methyl)phenyl)-2,4-dihydro-3H-1,2,4-triazol-3-one]
pIC50 [2]: 5.00 to 6.00

Cc1nc(N2CC(OC(F)F)C2)sc1Oc1ccc(-n2ncn(Cc3c(F)cccc3F)c2=O)cc1 [Example 49, 4-(2,6-difluorobenzyl)-2-(4-((2-(3-(difluoromethoxy)azetidin-1-yl)-4-methylthiazol-5-yl)oxy)phenyl)-2,4-dihydro-3H-1,2,4-triazol-3-one]
pIC50 [3]: > 7.00

Cc1nc(C(F)(F)C(N)=O)sc1Oc1ccc(-n2ncn(Cc3c(F)cccc3F)c2=O)cc1F [Example 116, 2-(5-(4-(4-(2,6-difluorobenzyl)-5-oxo-4,5-dihydro-1H-1,2,4-triazol-1-yl)-2-fluorophenoxy)-4-methylthiazol-2-yl)-2,2-difluoroacetamide]
pIC50 [2]: > 7.00

Cc1nc(C(=O)N2C[C@H](N)[C@@H]2C)sc1Oc1ccc(-n2ncn(Cc3ccccc3F)c2=O)cc1F [Example 587, 2-(4-((2-((2S,3S)-3-amino-2-methylazetidine-1-carbonyl)-4-methylthiazol-5-yl)oxy)-3-fluorophenyl)-4-(2-fluorobenzyl)-2,4-dihydro-3H-1,2,4-triazol-3-one]
pIC50 [2]: > 7.00

COc1cncc(Oc2ccc(-n3ncn(Cc4c(F)cccc4F)c3=O)cc2)c1 [Example 671, 4-(2,6-difluorobenzyl)-2-(4-((5-methoxypyridin-3-yl)oxy)phenyl)-2,4-dihydro-3H-1,2,4-triazol-3-one]
pIC50 [1]: > 7.00

CC1(C#N)CN(c2nccc(Oc3ccc(-n4ncn(Cc5c(F)cccc5F)c4=O)cc3Cl)c2F)C1 [Example 224, 1-(4-(2-chloro-4-(4-(2,6-difluorobenzyl)-5-oxo-4,5-dihydro-1H-1,2,4-triazol-1-yl)phenoxy)-3-fluoropyridin-2-yl)-3-methylazetidine-3-carbonitrile]
pIC50 [4]: > 7.00

Cc1nc(C#N)sc1Oc1ccc(-n2ncn(Cc3ncccc3Cl)c2=O)cc1F [Example 37, 5-(4-(4-((3-chloropyridin-2-yl)methyl)-5-oxo-4,5-dihydro-1H-1,2,4-triazol-1-yl)-2-fluorophenoxy)-4-methylthiazole-2-carbonitrile]
pIC50 [3]: > 7.00

Cc1nc(C(=O)N(C)C)sc1Oc1ccc(-n2ncn(Cc3c(F)cccc3F)c2=O)cc1F [Example 611, 5-(4-(4-(2,6-difluorobenzyl)-5-oxo-4,5-dihydro-1H-1,2,4-triazol-1-yl)-2-fluorophenoxy)-N,N,4-trimethylthiazole-2-carboxamide]
pIC50 [2]: > 7.00

Cc1cc(C(N)=O)sc1Oc1ccc(-n2nc3n(c2=O)[C@H](c2ccccc2)CC3)cc1F (single isomer, unassigned) [Example 689]
pIC50 [3]: > 7.00

Cc1nc(N2CCC(C)(C#N)C2)sc1Oc1ccc(-n2ncn(Cc3c(F)cccc3F)c2=O)cc1 (stereo not drawn) [Example 454, 1-(5-(4-(4-(2,6-difluorobenzyl)-5-oxo-4,5-dihydro-1H-1,2,4-triazol-1-yl)phenoxy)-4-methylthiazol-2-yl)-3-methylpyrrolidine-3-carbonitrile]
pIC50 [4]: > 7.00

Nc1cc(Oc2ccc(-n3ncn(Cc4c(F)cccc4F)c3=O)cc2)ccn1 [Example 310, 2-(4-((2-aminopyridin-4-yl)oxy)phenyl)-4-(2,6-difluorobenzyl)-2,4-dihydro-3H-1,2,4-triazol-3-one]
pIC50 [4]: 6.00 to 7.00

NC1CC2(C1)CC(Nc1cc(Oc3ccc(-n4ncn(Cc5c(F)cccc5F)c4=O)cc3)ccn1)C2 (stereo not drawn) [Example 332, 2-(4-((2-((6-aminospiro[3.3]heptan-2-yl)amino)pyridin-4-yl)oxy)phenyl)-4-(2,6-difluorobenzyl)-2,4-dihydro-3H-1,2,4-triazol-3-one]
pIC50 [4]: 6.00 to 7.00

Cc1c(C#N)cnn1Cc1ccc(-n2ncn(Cc3c(F)cccc3F)c2=O)cc1 [Example 191, 1-(4-(4-(2,6-difluorobenzyl)-5-oxo-4,5-dihydro-1H-1,2,4-triazol-1-yl)benzyl)-5-methyl-1H-pyrazole-4-carbonitrile]
pIC50 [2]: > 7.00

O=c1n(Cc2c(F)cccc2F)cnn1-c1ccc(Oc2cc(N3CC4(COC4)C3)ncc2F)c(F)c1 [Example 237, 4-(2,6-difluorobenzyl)-2-(3-fluoro-4-((5-fluoro-2-(2-oxa-6-azaspiro[3.3]heptan-6-yl)pyridin-4-yl)oxy)phenyl)-2,4-dihydro-3H-1,2,4-triazol-3-one]
pIC50 [4]: > 7.00

Cc1nc(C2=NCCN2C)sc1Oc1ccc(-n2ncn(Cc3c(F)cccc3F)c2=O)cc1 [Example 633, 4-(2,6-difluorobenzyl)-2-(4-((4-methyl-2-(1-methyl-4,5-dihydro-1H-imidazol-2-yl)thiazol-5-yl)oxy)phenyl)-2,4-dihydro-3H-1,2,4-triazol-3-one]
pIC50 [1]: > 7.00

COC(=O)c1nc(C)c(Oc2ccc(-n3ncn(Cc4ncccc4C#N)c3=O)cc2F)s1 [Example 33, methyl 5-(4-(4-((3-cyanopyridin-2-yl)methyl)-5-oxo-4,5-dihydro-1H-1,2,4-triazol-1-yl)-2-fluorophenoxy)-4-methylthiazole-2-carboxylate]
pIC50 [3]: 6.00 to 7.00

Cc1ncsc1Oc1ccc(-n2ncn(Cc3cc(Cl)ccn3)c2=O)cc1F [Example 9, 4-((4-chloropyridin-2-yl)methyl)-2-(3-fluoro-4-((4-methylthiazol-5-yl)oxy)phenyl)-2,4-dihydro-3H-1,2,4-triazol-3-one]
pIC50 [3]: 6.00 to 7.00

Cc1nc(Oc2ccncc2)sc1-n1ncn(Cc2c(F)cccc2F)c1=O [Example 11, 4-(2,6-difluorobenzyl)-2-(4-methyl-2-(pyridin-4-yloxy)thiazol-5-yl)-2,4-dihydro-3H-1,2,4-triazol-3-one]
pIC50 [3]: < 5.00

CCN(C)c1cc(Oc2ccc(-n3ncn(Cc4c(F)cccc4F)c3=O)cc2)ccn1 [Example 353, 4-(2,6-difluorobenzyl)-2-(4-((2-(ethyl(methyl)amino)pyridin-4-yl)oxy)phenyl)-2,4-dihydro-3H-1,2,4-triazol-3-one]
pIC50 [4]: 6.00 to 7.00

COC1(C#N)CN(c2ccnc(Cl)c2Oc2ccc(-n3ncn(Cc4c(F)cccc4F)c3=O)cc2)C1 [Example 359, 1-(2-chloro-3-(4-(4-(2,6-difluorobenzyl)-5-oxo-4,5-dihydro-1H-1,2,4-triazol-1-yl)phenoxy)pyridin-4-yl)-3-methoxyazetidine-3-carbonitrile]
pIC50 [4]: 6.00 to 7.00

Cc1cnn(C)c1Oc1ccc(-n2nc3n(c2=O)C(c2ccccc2)CC3)cc1F (stereo not drawn) [Example 175, 2-(4-((1,4-dimethyl-1H-pyrazol-5-yl)oxy)-3-fluorophenyl)-5-phenyl-2,5,6,7-tetrahydro-3H-pyrrolo[2,1-c][1,2,4]triazol-3-one]
pIC50 [2]: > 7.00

Cc1nc(C(N)=O)sc1Oc1ccc(-n2nc3n(c2=O)[C@H](c2ccc(F)cc2)CC3)cc1F (single isomer, unassigned) [Example 668]
pIC50 [1]: > 7.00

Nc1nc(COc2ccc(-n3ncn(Cc4c(F)cccc4F)c3=O)cc2F)cs1 [Example 659, 2-(4-((2-aminothiazol-4-yl)methoxy)-3-fluorophenyl)-4-(2,6-difluorobenzyl)-2,4-dihydro-3H-1,2,4-triazol-3-one]
pIC50 [1]: 6.00 to 7.00
